Experimental data as given in ChEMBL document CHEMBL5143566, “Discovery of Pyrazolo[1,5-a]pyrazin-4-ones as Potent and Brain Penetrant GluN2A-Selective Positive Allosteric Modulators Reducing AMPA Receptor Binding Activity” (Bioorg Med Chem, 2022).
Values belong to the compound of their own block, whether it stands above or below them. Active and inactive are the calls of the source. No cut-off for these calls is given here.

Experiments:
[1] = target: T1, Glutamate NMDA receptor; GRIN1/GRIN2A (Homo sapiens, UniProt Q05586+Q12879); experiment: Positive allosteric modulator activity at GluN1a/GluN2A (unknown origin) expressed in CHO cells in presence of glutamate by Ca2+ influx assay; assay type: cell-based
[2] = target: T1, Glutamate NMDA receptor; GRIN1/GRIN2A; experiment: Positive allosteric modulator activity at GluN1a/GluN2A (unknown origin) expressed in CHO cells assessed as maximum potentiation at 30 uM in presence of glutamate by Ca2+ influx assay relative to control; assay type: cell-based
[3] = target: T2, Glutamate receptor 2 (Homo sapiens, UniProt P42262); experiment: Displacement of [3H]-HBT1 from His-tagged GluA2-AMPA (unknown origin) receptor expressed in CHO cells in presence of glutamate by scintillation proximity assay; assay type: cell-based
T2 sequence (P42262 whole entry): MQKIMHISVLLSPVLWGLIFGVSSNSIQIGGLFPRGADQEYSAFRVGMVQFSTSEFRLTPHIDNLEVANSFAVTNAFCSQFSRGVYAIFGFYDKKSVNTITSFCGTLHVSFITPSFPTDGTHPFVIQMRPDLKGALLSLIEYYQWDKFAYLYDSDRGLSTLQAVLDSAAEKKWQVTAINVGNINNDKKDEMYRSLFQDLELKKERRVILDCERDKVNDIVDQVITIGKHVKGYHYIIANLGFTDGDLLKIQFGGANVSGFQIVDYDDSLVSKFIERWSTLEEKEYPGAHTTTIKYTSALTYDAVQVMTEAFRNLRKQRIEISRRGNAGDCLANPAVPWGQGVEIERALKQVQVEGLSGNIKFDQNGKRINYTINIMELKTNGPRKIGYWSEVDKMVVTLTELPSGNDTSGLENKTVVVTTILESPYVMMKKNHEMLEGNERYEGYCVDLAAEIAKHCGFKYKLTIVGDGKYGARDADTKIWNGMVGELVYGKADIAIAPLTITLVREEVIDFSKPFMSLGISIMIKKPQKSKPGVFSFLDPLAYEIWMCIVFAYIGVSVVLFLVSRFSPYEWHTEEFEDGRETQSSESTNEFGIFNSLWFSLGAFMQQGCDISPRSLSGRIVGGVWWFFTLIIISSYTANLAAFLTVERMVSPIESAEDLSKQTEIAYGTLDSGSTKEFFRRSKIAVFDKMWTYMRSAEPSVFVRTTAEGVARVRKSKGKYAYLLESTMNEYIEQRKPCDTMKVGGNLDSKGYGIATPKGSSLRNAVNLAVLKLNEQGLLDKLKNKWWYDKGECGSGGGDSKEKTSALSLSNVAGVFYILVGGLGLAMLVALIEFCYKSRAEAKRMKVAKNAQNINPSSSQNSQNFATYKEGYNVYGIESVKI

[4] = 1-Octanol/aqueous buffer distribution coefficient, log D of the compound at pH 7.4 by HPLC analysis; assay type: physicochemical
[5] = Clearance in rat liver microsomes at 1 uM in presence of NADPH measured for 15 to 30 min by LC-MS/MS analysis; assay type: ADME, Microsome; conditions: time 15-30 min, read-out: CLH
[6] = target: T2, Glutamate receptor 2; experiment: Positive allosteric modulator activity at GluA2-AMPA receptor (unknown origin) assessed as maximum potentiation by FLIPR assay relative to control
[7] = target: Glutamate receptor ionotropic, NMDA 2A (Homo sapiens) (UniProt Q12879); experiment: Positive allosteric modulator activity at GluN2A receptor (unknown origin) assessed as maximum potentiation by FLIPR assay relative to control; conditions: filed as positive allosteric modulator
[8] = target: T2, Glutamate receptor 2; experiment: Positive allosteric modulator activity at GluA2-AMPA receptor (unknown origin) by FLIPR assay
[9] = target: T2, Glutamate receptor 2; experiment: Displacement of [3H]-HBT1 from GluA2-AMPA receptor (unknown origin) in presence of glutamate by scintillation proximity assay
[10] = target: Glutamate receptor ionotropic, NMDA 2A (Homo sapiens, UniProt Q05586+Q12879); experiment: Positive allosteric modulator activity at GluN2A receptor (unknown origin) by FLIPR assay
[11] = Clearance in human liver microsomes at 1 uM in presence of NADPH measured for 15 to 30 min by LC-MS/MS analysis; assay type: ADME, Microsome; conditions: time 15-30 min, read-out: CLH
[12] = Drug concentration in rat plasma at 3 mg/kg, po after 2 hrs by LC-MS/MS analysis; assay type: ADME, organism-based
[13] = AUC in rat at 10 mg/kg, po by LC-MS/MS analysis; assay type: ADME, organism-based; set-up: dose 10 mg/kg, route po; conditions: in vivo
[14] = target: T3, Ionotropic glutamate receptor NMDA 1/2C (Homo sapiens, UniProt Q05586+Q14957); experiment: Positive allosteric modulator activity at GluN1a/GluN2C (unknown origin) expressed in CHO cells at 30 uM in presence of glutamate by Ca2+ influx assay relative to control; assay type: cell-based; conditions: filed as positive allosteric modulator
[15] = Drug concentration in rat brain at 3 mg/kg, po after 0.5 hrs by LC-MS/MS analysis; assay type: ADME, organism-based; conditions: read-out: Ct
[16] = target: T3, Ionotropic glutamate receptor NMDA 1/2C; experiment: Positive allosteric modulator activity at GluN1a/GluN2C (unknown origin) expressed in CHO cells in presence of glutamate by Ca2+ influx assay; assay type: cell-based
[17] = Oral bioavailability in rat at 10 mg/kg by LC-MS/MS analysis; assay type: ADME, organism-based; conditions: in vivo
[18] = species: Homo sapiens; experiment: Selectivity index, ratio of EC50 for GluN1a/GluN2C (unknown origin) expressed in CHO cells to EC50 for GluN1a/GluN2A (unknown origin) expressed in CHO cells; assay type: cell-based
[19] = Drug concentration in rat plasma at 3 mg/kg, po after 1 hrs by LC-MS/MS analysis; assay type: ADME, organism-based
[20] = Drug concentration in rat brain at 3 mg/kg, po after 2 hrs by LC-MS/MS analysis; assay type: ADME, organism-based; conditions: read-out: Ct
[21] = Total clearance in rat at 1 mg/kg, iv by LC-MS/MS analysis; assay type: ADME, organism-based; conditions: in vivo
[22] = species: Homo sapiens; experiment: Selectivity index, ratio of EC50 for GluN1a/GluN2B (unknown origin) expressed in CHO cells to EC50 for GluN1a/GluN2A (unknown origin) expressed in CHO cells; assay type: cell-based
[23] = target: Ionotropic glutamate receptor NMDA 1/2D (Homo sapiens, UniProt O15399+Q05586); experiment: Positive allosteric modulator activity at GluN1a/GluN2D (unknown origin) expressed in CHO cells in presence of glutamate by Ca2+ influx assay; assay type: cell-based
[24] = target: Ionotropic glutamate receptor NMDA 1/2D (Homo sapiens) (UniProt Q05586+O15399); experiment: Positive allosteric modulator activity at GluN1a/GluN2D (unknown origin) expressed in CHO cells at 30 uM in presence of glutamate by Ca2+ influx assay relative to control; assay type: cell-based; conditions: filed as positive allosteric modulator
[25] = system: CHO; experiment: Positive allosteric modulator activity at GluN1a/GluN2B (unknown origin) expressed in CHO cells at 30 uM in presence of glutamate by Ca2+ influx assay relative to control; assay type: cell-based; conditions: Homo sapiens
[26] = Drug concentration in rat plasma at 3 mg/kg, po after 0.5 hrs by LC-MS/MS analysis; assay type: ADME, organism-based
[27] = Volume of distribution at steady state in rat at 1 mg/kg, iv by LC-MS/MS analysis; assay type: ADME, organism-based; conditions: in vivo, read-out: Vdss
[28] = Ratio of drug concentration in brain to plasma at 3 mg/kg, po after 1 hr by LC-MS/MS analysis; assay type: ADME, organism-based; conditions: rat, brain and plasma, read-out: BPR
[29] = Ratio of drug concentration in brain to plasma at 3 mg/kg, po after 0.5 hr by LC-MS/MS analysis; assay type: ADME, organism-based; conditions: rat, brain and plasma, read-out: BPR
[30] = Drug concentration in rat brain at 3 mg/kg, po after 1 hrs by LC-MS/MS analysis; assay type: ADME, organism-based; conditions: read-out: Ct
[31] = Ratio of drug concentration in brain to plasma at 3 mg/kg, po after 2 hr by LC-MS/MS analysis; assay type: ADME, organism-based; conditions: rat, brain and plasma, read-out: BPR
[32] = species: Homo sapiens; experiment: Selectivity index, ratio of EC50 for GluN1a/GluN2D (unknown origin) expressed in CHO cells to EC50 for GluN1a/GluN2A (unknown origin) expressed in CHO cells; assay type: cell-based
[33] = Cmax in rat at 1 mg/kg, iv by LC-MS/MS analysis; assay type: ADME, organism-based; set-up: dose 1 mg/kg, route iv; conditions: in vivo
[34] = system: Rattus norvegicus; experiment: Induction of LTP enhancement in Sprague-Dawley rat assessed as increase in LTP enhancement in hippocampal slices at 10 mg/kg, po; assay type: functional, organism-based
[35] = MRT in rat at 10 mg/kg, po by LC-MS/MS analysis; assay type: ADME, organism-based; conditions: in vivo
[36] = filed as positive allosteric modulator

Structure (SMILES): Cc1cn([C@@H](C)CC#N)c(=O)c2cc(Cn3nc(C(F)F)cc3Cl)nn12
- %max [2]: < 150%
- IC50 [3]: > 30 µM
- logD [4]: 2.06

Structure (SMILES): N#C[C@H]1C[C@H]1c1c(C(F)(F)F)sc2nc(Cn3nc(C(F)(F)F)cc3Cl)cc(=O)n12
- %max ([6]; BLD = below limit of detection): Bld
- %max [7]: 416%
- EC50 [8]: 24 µM
- IC50 [9]: 0.88 µM
- EC50 [10]: 0.011 µM

Structure (SMILES): N#C[C@H]1C[C@H]1c1c(Cl)ccc2nc(Cn3nc(C(F)(F)F)cc3Cl)cc(=O)n12
- %max [6]: 61%
- %max [7]: 471%
- EC50 [8]: > 30 µM
- IC50 [9]: 0.38 µM
- EC50 [10]: 0.039 µM

Structure (SMILES): Cc1cc(Cl)n(Cc2cc3c(=O)n(CCC#N)cc(C)n3n2)n1
- microsomal CLint at 1 µM [5]: 10 µL/min/mg
- %max [2]: < 150%
- microsomal CLint at 1 µM [11]: 8 µL/min/mg
- IC50 [3]: > 30 µM
- logD [4]: 1.84

Structure (SMILES): Cc1cn([C@H](C)CC#N)c(=O)c2cc(Cn3nc(C(F)F)cc3Cl)nn12
- concentration at 2 h [12]: 286 ng/mL
- EC50 [1]: 0.51 µM
- AUC [13]: 9140 ng·h/mL
- %max [14]: 200%
- concentration at 0.5 h [15]: 307 ng/g
- EC50 [16]: > 30 µM
- %max [2, 36]: 350%
- bioavailability [17]: 21.4%
- microsomal CLint at 1 µM [11]: 33 µL/min/mg
- Ratio EC50 [18]: 19
- IC50 [3]: > 30 µM
- concentration at 1 h [19]: 397 ng/mL
- concentration at 2 h [20]: 146 ng/g
- clearance [21]: 3.92 mL/min/kg
- Ratio EC50 [22]: > 59
- EC50 [23]: > 30 µM
- %max [24]: 260%
- %max [25]: < 150%
- logD [4]: 2.06
- concentration at 0.5 h [26]: 523 ng/mL
- Vd [27]: 0.657 L/kg
- Kp at 1 h [28]: 0.47
- Kp at 0.5 h [29]: 0.59
- concentration at 1 h [30]: 187 ng/g
- Kp at 2 h [31]: 0.51
- Ratio EC50 [32]: 19
- Cmax [33]: 1910 ng/mL
- Activity [34]: Active
- MRT [35]: 3.5 h

Structure (SMILES): CCN(Cc1cc2ccn(CC#N)c(=O)c2s1)c1ccc(F)cc1
- EC50 [1]: > 30 µM
- %max [2, 36]: 230%
- IC50 [3]: > 30 µM
- logD [4]: 2.63

Structure (SMILES): Cc1cn(CCC#N)c(=O)c2cc(Cn3nc(Cl)cc3Cl)nn12
- EC50 [1]: > 30 µM
- microsomal CLint at 1 µM [5]: 13 µL/min/mg
- %max [2]: < 150%
- IC50 [3]: > 30 µM
- logD [4]: 2.07

More lines, now with the values ahead:

- EC50 [1]: 0.18 µM
- %max [2, 36]: 480%
- IC50 [3]: > 30 µM
- logD [4]: 3.01
Structure (SMILES): CCN(Cc1cc2c(C)cn(CCC#N)c(=O)c2s1)c1ccc(F)cc1

- microsomal CLint at 1 µM [5]: 7 µL/min/mg
- %max [2, 36]: 420%
- IC50 [3]: 19 µM
- logD [4]: 2.32
Structure (SMILES): Cc1cn(CCC#N)c(=O)c2cc(Cn3nc(C(F)(F)F)cc3Cl)nn12

- EC50 [1]: 2 µM
- %max [2, 36]: 220%
- IC50 [3]: > 30 µM
- logD [4]: 1.88
Structure (SMILES): Cc1cn(CCC#N)c(=O)c2cc(Cn3nc(C(F)F)cc3Cl)nn12

- EC50 [1]: 5.2 µM
- %max [2, 36]: 420%
- IC50 [3]: 22 µM
- logD [4]: 2.45
Structure (SMILES): CCN(Cc1cc2c(=O)n(CCC#N)ccn2n1)c1ccc(F)cc1

- EC50 [1]: 0.16 µM
- microsomal CLint at 1 µM [5]: 91 µL/min/mg
- %max [2, 36]: 420%
- microsomal CLint at 1 µM [11]: 37 µL/min/mg
- IC50 [3]: 22 µM
- logD [4]: 2.83
Structure (SMILES): CCN(Cc1cc2c(=O)n(CCC#N)cc(C)n2n1)c1ccc(F)cc1

- EC50 [1]: 0.6 µM
- %max [2, 36]: 440%
- IC50 [3]: 0.61 µM
- logD [4]: 2.95
Structure (SMILES): CCN(Cc1cc2cc(C)n(CCC#N)c(=O)c2s1)c1ccc(F)cc1

- %max ([6]; BLD = below limit of detection): Bld
- %max [7]: 270%
- EC50 [8]: > 30 µM
- logD [4]: 2.06
- IC50 [9]: 1.2 µM
- EC50 [10]: > 30 µM
Structure (SMILES): CCN(Cc1ccc(C(=O)N2CCC[C@@H]2C#N)s1)c1ccc(F)cc1

- EC50 [1]: 4.4 µM
- %max [2, 36]: 410%
- IC50 [3]: > 30 µM
- logD [4]: 3.34
Structure (SMILES): CCc1cn(CCC#N)c(=O)c2sc(CN(CC)c3ccc(F)cc3)cc12

- EC50 [1]: > 30 µM
- %max [2, 36]: 320%
- IC50 [3]: 0.61 µM
- logD [4]: 2.92
Structure (SMILES): CCN(Cc1cc2c(=O)n(CCC#N)ccc2s1)c1ccc(F)cc1

- EC50 [1]: 2.3 µM
- %max [2, 36]: 450%
- IC50 [3]: > 30 µM
- logD [4]: 2.68
Structure (SMILES): CCN(Cc1cc2ccn(CCC#N)c(=O)c2s1)c1ccc(F)cc1

- EC50 [1]: 1.5 µM
- microsomal CLint at 1 µM [5]: 1 µL/min/mg
- %max [2, 36]: 160%
- IC50 [3]: > 30 µM
- logD [4]: 2.16
Structure (SMILES): Cc1cn(CCC#N)c(=O)c2cc(Cn3nc(Br)cc3Cl)nn12
